Measured values published in patent publication US20250302815A1, “PROTEIN TYROSINE PHOSPHATASE TARGETING LIGANDS” (CALICO LIFE SCIENCES LLC, priority 2021, published 2025).

What was measured:
[1] = biological target: T1, PTPN2 (HiBIT-PTPN2 in 293T.109 cells) (Homo sapiens, UniProt P17706); assay: HiBiT Degradation 293T.109 PTPN2 (Nano-Glo HiBiT Lytic Assay); assay type: cell-based; conditions: 24.0 hours
T1 construct: expressed in transfected cells; host or cells: 293T.109 (293T WT from ATCC)
T1 sequence (P17706 1-415): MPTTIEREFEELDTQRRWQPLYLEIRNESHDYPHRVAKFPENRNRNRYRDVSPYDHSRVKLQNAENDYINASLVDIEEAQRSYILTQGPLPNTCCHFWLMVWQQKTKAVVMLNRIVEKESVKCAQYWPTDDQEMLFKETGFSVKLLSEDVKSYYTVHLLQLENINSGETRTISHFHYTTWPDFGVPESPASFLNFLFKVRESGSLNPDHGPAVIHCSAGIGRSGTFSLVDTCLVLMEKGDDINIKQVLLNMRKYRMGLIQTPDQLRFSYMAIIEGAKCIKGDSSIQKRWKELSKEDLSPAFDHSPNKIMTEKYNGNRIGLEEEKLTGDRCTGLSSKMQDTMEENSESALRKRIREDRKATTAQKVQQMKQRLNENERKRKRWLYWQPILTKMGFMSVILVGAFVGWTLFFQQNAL
From the text: Dulbecco's modified Eagle medium (DMEM) without phenol red and fetal bovine serum (FBS) were purchased from Gibco (Grand Island, NY, USA). Nano-Glo® HiBIT Lytic Assay System was purchased from Promega (Madison, WI, USA). 293T.109 (HiBIT-PTPN2) cell line was generated by ectopically expressing PTPN2 with N-terminal HiBIT fusion tag in 293T WT cell line purchased from ATCC (Manassas, VA, USA). Cell culture flasks and 384-well microplates were acquired from VWR (Radnor, PA, USA).
PTPN2 degradation was determined based on quantification of luminescent signal using Nano-Glo® HiBIT Lytic Assay kit. Test compounds were added to the 384-well plate from a top concentration of 10 μM with 11 points, half log titration in duplicates. 293T.109 cells were added into 384-well plates at a cell density of 5000 cells per well. The plates were kept at 37° C. with 5% CO2 for 24 hours. The cells treated in the absence of the test compound were the negative control and the cells without Nano-Glo® HiBIT Lytic reagent were the positive control. After 24-hour incubation, Nano-Glo® HiBiT Lytic Assay reagents were added to the cells. Luminescence was acquired on EnVision™ Multilabel Reader (PerkinElmer, Santa Clara, CA, USA).

PTPN2 (B16F10.4 cells) = biological target: T2, PTPN2 (B16F10.4 cells) (Mus musculus, UniProt Q06180); assay: HiBiT Degradation B16F10.4 PTPN2; assay type: cell-based; conditions: 24.0 hours
T2 construct: HiBiT; host or cells: B16F10.4
T2 sequence (Q06180 1-406): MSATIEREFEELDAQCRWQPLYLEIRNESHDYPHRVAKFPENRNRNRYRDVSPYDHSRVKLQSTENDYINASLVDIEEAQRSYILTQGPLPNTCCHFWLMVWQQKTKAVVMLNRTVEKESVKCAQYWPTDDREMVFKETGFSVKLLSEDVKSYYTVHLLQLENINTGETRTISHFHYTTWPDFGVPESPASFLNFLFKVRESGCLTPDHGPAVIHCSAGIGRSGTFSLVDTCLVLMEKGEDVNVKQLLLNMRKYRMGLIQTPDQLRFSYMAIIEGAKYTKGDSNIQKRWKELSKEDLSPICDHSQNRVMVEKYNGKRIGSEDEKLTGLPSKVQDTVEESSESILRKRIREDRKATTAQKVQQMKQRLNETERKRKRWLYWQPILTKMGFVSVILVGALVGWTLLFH

| DC50 [1] | DC50 (PTPN2 (B16F10.4 cells)) | SMILES |
| --- | --- | --- |
| 50 to 200 nM | 200 to 1000 nM | CC1(C)C[C@@H](Nc2cccc(-c3sc(C(=O)O)c(OCC(=O)O)c3Cl)c2)CCN1S(=O)(=O)Cc1cccc(NC(=O)C2CCN(C(=O)CNc3cccc4c3C(=O)N(C3CCC(=O)NC3=O)C4=O)CC2)c1 (stereo partly drawn) [Example 32, 3-(carboxymethoxy)-4-chloro-5-[3-[[(4S)-1-[[3-[[1-[2-[[2-(2,6-dioxo-3-piperidyl)-1,3-dioxo-isoindolin-4-yl]amino]acetyl]piperidine-4-carbonyl]amino]phenyl]methylsulfonyl]-2,2-dimethyl-4-piperidyl]amino]phenyl]thiophene-2-carboxylic acid] |
| 200 to 1000 nM | ≥ 1000 nM | O=C(O)COc1c(C(=O)O)sc(-c2cccc(NC3CCN(S(=O)(=O)Cc4cccc(NC(=O)CCCCCN5CCC(Nc6cccc7c6CN(C6CCC(=O)NC6=O)C7=O)CC5)c4)CC3)c2)c1Cl (stereo not shown) [Example 33, 3-(carboxymethoxy)-4-chloro-5-[3-[[1-[[3-[6-[4-[[2-(2,6-dioxo-3-piperidyl)-1-oxo-isoindolin-4-yl]amino]-1-piperidyl]hexanoylamino]phenyl]methylsulfonyl]-4-piperidyl]amino]phenyl]thiophene-2-carboxylic acid] |
| 200 to 1000 nM | 200 to 1000 nM | CC1(C)C[C@@H](Nc2cccc(-c3sc(C(=O)O)c(OCC(=O)O)c3Cl)c2)CCN1S(=O)(=O)Cc1cccc(NC(=O)CNc2ccc3c(c2)C(=O)N(C2CCC(=O)NC2=O)C3=O)c1 (stereo partly drawn) [Example 34, 3-(carboxymethoxy)-4-chloro-5-[3-[[(4S)-1-[[3-[[2-[[2-(2,6-dioxo-3-piperidyl)-1,3-dioxo-isoindolin-5-yl]amino]acetyl]amino]phenyl]methylsulfonyl]-2,2-dimethyl-4-piperidyl]amino]phenyl]thiophene-2-carboxylic acid] |
| 200 to 1000 nM | 200 to 1000 nM | CC1(C)C[C@@H](Nc2cccc(-c3sc(C(=O)O)c(OCC(=O)O)c3Cl)c2)CCN1S(=O)(=O)Cc1cccc(NC(=O)CCOCCOCCOCCCc2cccc3c2C(=O)N(C2CCC(=O)NC2=O)C3=O)c1 (stereo partly drawn) [Example 35, 3-(carboxymethoxy)-4-chloro-5-[3-[[(4S)-1-[[3-[3-[2-[2-[3-[2-(2,6-dioxo-3-piperidyl)-1,3-dioxo-isoindolin-4-yl]propoxy]ethoxy]ethoxy]propanoylamino]phenyl]methylsulfonyl]-2,2-dimethyl-4-piperidyl]amino]phenyl]thiophene-2-carboxylic acid] |
| 200 to 1000 nM | 200 to 1000 nM | O=C(O)COc1c(C(=O)O)sc(-c2cccc(NC3CCN(S(=O)(=O)Cc4cccc(NC(=O)CNc5ccc6c(c5)CN(C5CCC(=O)NC5=O)C6=O)c4)CC3)c2)c1Cl (stereo not shown) [Example 36, 3-(carboxymethoxy)-4-chloro-5-[3-[[1-[[3-[[2-[[2-(2,6-dioxo-3-piperidyl)-1-oxo-isoindolin-5-yl]amino]acetyl]amino]phenyl]methylsulfonyl]-4-piperidyl]amino]phenyl]thiophene-2-carboxylic acid] |
| 200 to 1000 nM | 200 to 1000 nM | CC1(C)C[C@@H](Nc2cccc(-c3sc(C(=O)O)c(OCC(=O)O)c3Cl)c2)CCN1S(=O)(=O)Cc1cccc(NC(=O)CNc2ccc3c(c2)CN(C2CCC(=O)NC2=O)C3=O)c1 (stereo partly drawn) [Example 37, 3-(carboxymethoxy)-4-chloro-5-[3-[[(4S)-1-[[3-[[2-[[2-(2,6-dioxo-3-piperidyl)-1-oxo-isoindolin-5-yl]amino]acetyl]amino]phenyl]methylsulfonyl]-2,2-dimethyl-4-piperidyl]amino]phenyl]thiophene-2-carboxylic acid] |
| 200 to 1000 nM | ≥ 1000 nM | O=C(O)COc1c(C(=O)O)sc(-c2cccc(NC3CCN(S(=O)(=O)Cc4cccc(NC(=O)CCn5cc(CNc6cccc7c6CN(C6CCC(=O)NC6=O)C7=O)cn5)c4)CC3)c2)c1Cl (stereo not shown) [Example 38, 3-(carboxymethoxy)-4-chloro-5-[3-[[1-[[3-[3-[4-[[[2-(2,6-dioxo-3-piperidyl)-1-oxo-isoindolin-4-yl]amino]methyl]pyrazol-1-yl]propanoylamino]phenyl]methylsulfonyl]-4-piperidyl]amino]phenyl]thiophene-2-carboxylic acid] |
| 200 to 1000 nM | ≥ 1000 nM | CC(C)(c1cccc(NC(=O)CCCCCCNC(=O)CNc2ccc3c(c2)CN(C2CCC(=O)NC2=O)C3=O)c1)S(=O)(=O)N1CCC(Nc2cccc(-c3sc(C(=O)O)c(OCC(=O)O)c3Cl)c2)CC1 (stereo not shown) [Example 39, 3-(carboxymethoxy)-4-chloro-5-[3-[[1-[1-[3-[7-[[2-[[2-(2,6-dioxo-3-piperidyl)-1-oxo-isoindolin-5-yl]amino]acetyl]amino]heptanoylamino]phenyl]-1-methyl-ethyl]sulfonyl-4-piperidyl]amino]phenyl]thiophene-2-carboxylic acid] |
| 200 to 1000 nM | ≥ 1000 nM | CC(C)(c1cccc(NC(=O)CCCCCCNC(=O)CNc2cccc3c2CN(C2CCC(=O)NC2=O)C3=O)c1)S(=O)(=O)N1CCC(Nc2cccc(-c3sc(C(=O)O)c(OCC(=O)O)c3Cl)c2)CC1 (stereo not shown) [Example 40, 3-(carboxymethoxy)-4-chloro-5-[3-[[1-[1-[3-[7-[[2-[[2-(2,6-dioxo-3-piperidyl)-1-oxo-isoindolin-4-yl]amino]acetyl]amino]heptanoylamino]phenyl]-1-methyl-ethyl]sulfonyl-4-piperidyl]amino]phenyl]thiophene-2-carboxylic acid] |
| 50 to 200 nM | ≥ 1000 nM | CC1(C)C[C@@H](Nc2cccc(-c3sc(C(=O)O)c(OCC(=O)O)c3Cl)c2)CCN1S(=O)(=O)Cc1cccc(NC(=O)C2CCN(C(=O)CNc3ccc4c(c3)CN(C3CCC(=O)NC3=O)C4=O)CC2)c1 (stereo partly drawn) [Example 41, 3-(carboxymethoxy)-4-chloro-5-(3-(((4S)-1-((3-(1-((2-(2,6-dioxopiperidin-3-yl)-1-oxoisoindolin-5-yl)glycyl)piperidine-4-carboxamido)benzyl)sulfonyl)-2,2-dimethylpiperidin-4-yl)amino)phenyl)thiophene-2-carboxylic acid] |
| 200 to 1000 nM | ≥ 1000 nM | O=C(O)COc1c(C(=O)O)sc(-c2cccc(NC3CCN(S(=O)(=O)C(c4ccccc4)c4cccc(NC(=O)CNc5ccc6c(c5)C(=O)N(C5CCC(=O)NC5=O)C6=O)c4)CC3)c2)c1Cl (stereo not shown) [Example 42, 3-(carboxymethoxy)-4-chloro-5-(3-((1-(((3-(2-((2-(2,6-dioxopiperidin-3-yl)-1,3-dioxoisoindolin-5-yl)amino)acetamido)phenyl)(phenyl)methyl)sulfonyl)piperidin-4-yl)amino)phenyl)thiophene-2-carboxylic acid] |
| 50 to 200 nM | ≥ 1000 nM | CC1(C)C[C@@H](Nc2cccc(-c3sc(C(=O)O)c(OCC(=O)O)c3Cl)c2)CCN1S(=O)(=O)Cc1cccc(NC(=O)C2CCN(C(=O)CNc3ccc4c(c3)C(=O)N(C3CCC(=O)NC3=O)C4=O)CC2)c1 (stereo partly drawn) [Example 43, 3-(carboxymethoxy)-4-chloro-5-[3-[[(4S)-1-[[3-[[1-[2-[[2-(2,6-dioxo-3-piperidyl)-1,3-dioxo-isoindolin-5-yl]amino]acetyl]piperidine-4-carbonyl]amino]phenyl]methylsulfonyl]-2,2-dimethyl-4-piperidyl]amino]phenyl]thiophene-2-carboxylic acid] |
| < 50 nM | 200 to 1000 nM | CC1(C)C[C@@H](Nc2cccc(-c3sc(C(=O)O)c(OCC(=O)O)c3Cl)c2)CCN1S(=O)(=O)Cc1cccc(NC(=O)C2CN(C(=O)CNc3cccc4c3CN(C3CCC(=O)NC3=O)C4=O)C2)c1 (stereo partly drawn) [Example 44, 3-(Carboxymethoxy)-4-chloro-5-(3-(((4S)-1-((3-(1-((2-(2,6-dioxopiperidin-3-yl)-1-oxoisoindolin-4-yl)glycyl)azetidine-3-carboxamido)benzyl)sulfonyl)-2,2-dimethylpiperidin-4-yl)amino)phenyl)thiophene-2-carboxylic acid] |
| 200 to 1000 nM | 200 to 1000 nM | O=C(O)COc1c(C(=O)O)sc(-c2cccc(NC3CCN(S(=O)(=O)Cc4cccc(NC(=O)CN5CCC(c6ccc7c(c6)CN(C6CCC(=O)NC6=O)C7=O)CC5)c4)CC3)c2)c1Cl (stereo not shown) [Example 45] |
